Read-outs that look alike come from different tables or passages of the source.
How the values were obtained:
[1] = system: IICR (IP3 induced calcium release) in CHO cells; assay: Assay of IICR (IP3 induced calcium release)-inhibiting action; type: cell-based, Chinese hamster; settings: for inhibition at 10 µM / inhibition at 30 µM / inhibition at 100 µM: Cricetulus griseus, CHO, read-out: IICR level (percentage of inhibition); for inhibition at 10 µM / inhibition at 30 µM / inhibition at 100 µM / IICR level (percentage of inhibition): CHO cells, 10 μM ATP
Outline: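 CHO cell medium replaced with calcium-containing BSS; compound added 1 min later, then 10 μM ATP after a further 2 min. Percent inhibition of the ATP-evoked rise in intracellular calcium determined at each compound concentration.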

TGase = TGase (Cavia porcellus, UniProt P08587); type: biochemical; settings: for TG level: level with DMSO control designated as 100
Description: An enzyme reaction solution (0.1 ml) (100 mM HEPES-NaOH, pH 7.5, 1 mM CaCl2, 20 μM monodansyl cadaverine, 0.05 mg/ml N,N-dimethylcasein, 5 μg/ml TGase) was introduced into wells of a 96-well plate (Nunc, 96 Well Black Plate with Clear Bottom). A test compound was added in concentrations of 0.3, 1.0, 3.0, 10, and 30 μM. The solution and the compound were sufficiently mixed while preventing foaming. The plate was set in the fluorescence drug screening system FDSS 3000 (Hamamatsu Photonics K.K.). TGase-inhibiting activity of the compound was calculated by assaying changes in fluorescence wavelength (at 340 nm) per unit time. […] The assay level at which TGase activity decreased by half in the presence of the test compound was designated as TG 50.
Hereafter, the numerals in parentheses written after the TG level, the SOCE level, and the IICR level correspond to the test compound concentrations. The number following the name of each title compound used in the Examples below represents a compound ID number designated arbitrarily by the present inventors.

[2] = system: SOCE (store operated calcium entry) in CHO cells; assay: Assay of SOCE (store operated calcium entry)-inhibiting action; type: cell-based, Chinese hamster; settings: Cricetulus griseus, CHO, CHO cells, thapsigargin, read-out: SOCE level (percentage of inhibition); for inhibition at 10 µM: test compound 10 μmol; for inhibition at 30 µM: test compound 30 μmol; for inhibition at 100 µM: test compound 100 μmol
Outline: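 CHO cells in calcium-free BSS received compound, then 1 μM thapsigargin 2 min later to deplete stores; after 9 min, 2 mM calcium chloride (final) added. Percent inhibition of the rise in intracellular calcium determined at various compound concentrations.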

Row | Compound | TG-activity-inhibiting action or protein-crosslinking-inhibiting action (in words) (TGase) | inhibition at 10 µM [2] [%] | inhibition at 30 µM [2] [%] | inhibition at 100 µM [2] [%] | inhibition at 10 µM ([1]; test compound 10 μmol) [%] | inhibition at 30 µM ([1]; test compound 30 μmol) [%] | inhibition at 100 µM ([1]; test compound 100 μmol) [%] | further results
1 | CCN(CCC(=O)c1ccco1)Cc1ccccc1 [Example 8412, 2-(N-benzylethyl)aminoethyl-2-furylketone] | strongly |  |  |  |  |  |  | IICR-inhibiting activity compared with SOCE-inhibiting activity (in words) [1]: higher than SOCE-inhibiting activity
2 | CC(C)N(CCC(=O)c1ccccn1)Cc1ccccc1 [Example 8305, 2-(N-isopropylbenzyl)aminoethyl-2-pyridylketone] | strongly |  |  |  |  |  |  | IICR-inhibiting activity compared with SOCE-inhibiting activity (in words) [1]: higher than SOCE-inhibiting activity
3 | CCc1nccnc1C(=O)CCN(Cc1ccccc1)C(C)(C)C [Example 8658, 2-(N-t-butylbenzyl)aminoethyl-2-(3-ethyl)-pyrazylketone] | strongly |  |  |  |  |  |  | IICR-inhibiting activity compared with SOCE-inhibiting activity (in words) [1]: higher than SOCE-inhibiting activity
4 | C=CC(=O)C(c1ccccc1)c1ccccc1 [Example 8269, Acryloyldiphenylmethane] | high |  |  |  |  |  |  | 
5 | O=C(CCN(CCO)Cc1ccccc1)c1nccs1 [Example 8766, 2-(N-2-hydroxyethylbenzyl)aminoethyl-2-thiazolylketone] | strongly |  |  |  |  |  |  | IICR-inhibiting activity compared with SOCE-inhibiting activity (in words) [1]: higher than SOCE-inhibiting activity
6 | C=CC(=O)c1ccc(Br)cc1 [Example 8266, 1-acryloyl-4-bromobenzene] | high |  |  |  |  |  |  | 
7 | CC(C)(C)N(CCC(=O)c1ccc(Cl)s1)Cc1ccccc1 [Example 8756, 2-(N-t-butylbenzyl)aminoethyl-5-chloro-2-thienylketone] | strongly |  |  |  |  |  |  | IICR-inhibiting activity compared with SOCE-inhibiting activity (in words) [1]: higher than SOCE-inhibiting activity
8 | CCc1nccnc1C(=O)CCN(Cc1ccccc1)C(C)C [Example 8656, 2-(N-isopropylbenzyl)aminoethyl-2-(3-ethyl)-pyrazylketone] | strongly |  |  |  |  |  |  | IICR-inhibiting activity compared with SOCE-inhibiting activity (in words) [1]: higher than SOCE-inhibiting activity
9 | CC(C)(C)N(CCC(=O)c1cccs1)Cc1ccccc1 [Example 8638, 2-(N-t-butylbenzyl)aminoethyl-2-thiophenylketone] | strongly |  |  |  |  |  |  | IICR-inhibiting activity compared with SOCE-inhibiting activity (in words) [1]: higher than SOCE-inhibiting activity
10 | CC(C)(C)N(CCC(=O)c1ccc(C#N)cc1)Cc1ccccc1 [Example 8789, 2-(N-t-butylbenzyl)aminoethyl-4-cyanophenylketone] | strongly |  |  |  |  |  |  | IICR-inhibiting activity compared with SOCE-inhibiting activity (in words) [1]: higher than SOCE-inhibiting activity
11 | C=CC(=O)c1cc2c(cc1Br)OCO2 [Example 8200, 2-bromo-4,5-dioxymethylene-1-acryloylbenzene] | high |  |  |  |  |  |  | 
12 | CC(C)N(CCC(=O)c1ccc(Br)s1)Cc1ccccc1 [Example 8768, 2-(N-isopropylbenzyl)aminoethyl-5-bromo-2-thienylketone] | strongly |  |  |  |  |  |  | IICR-inhibiting activity compared with SOCE-inhibiting activity (in words) [1]: higher than SOCE-inhibiting activity
13 | C=CC(=O)c1ccc2c(C)cccc2c1 [Example 8211, 1-methyl-6-acryloylnaphthalene] | high |  |  |  |  |  |  | 
14 | C=CC(=O)c1ccccc1 [Example 8184, acryloylbenzene] | high |  |  |  |  |  |  | 
15 | C=CC(=O)c1ccc2c(F)cccc2c1 [Example 8257, 1-fluoro-6-acryloylnaphthalene] | high |  |  |  |  |  |  | 
16 | C=CC(=O)c1ccc(C)cc1 [Example 8185, 4-methyl-1-acryloylbenzene] | high |  |  |  |  |  |  | 

Row | Compound | TG-activity-inhibiting action or protein-crosslinking-inhibiting action (in words) (TGase) | inhibition at 10 µM [2] [%] | inhibition at 30 µM [2] [%] | inhibition at 100 µM [2] [%] | inhibition at 10 µM ([1]; test compound 10 μmol) [%] | inhibition at 30 µM ([1]; test compound 30 μmol) [%] | inhibition at 100 µM ([1]; test compound 100 μmol) [%] | further results
17 | C=CC(=O)c1ccc2ccccc2c1 [Example 8213, 2-acryloylnaphthalene] | high |  |  |  |  |  |  | 
18 | C=CC(=O)c1ccc(F)cc1 [Example 8186, 4-fluoro-1-acryloylbenzene] | high |  |  |  |  |  |  | 
19 | C=CC(=O)c1cccc2ccccc12 [Example 8293, 1-acryloylnaphthalene] | high |  |  |  |  |  |  | 
20 | Methyl vinylketone [Example 57] |  |  |  |  |  |  |  | TG level (TGase; test compound 3 μmol): 84; TG level (TGase; test compound 10 μmol): 94; TG level (TGase; test compound 30 μmol): 37
21 | Cc1ccc(C(=O)CCN(Cc2ccccc2)C(C)(C)C)cc1 [Example 303, 4-tolyl(N-benzyl-N-t-butyl)aminoethylketone] |  | 0 | 0 | 0 | 20 | 20 | 40 | 
22 | Cc1cc(C(=O)CCN(CCO)Cc2ccccc2)oc1C [Example 227, 2-(N-2-hydroxyethylbenzyl)aminoethyl-4,5-dimethyl-2-furylketone] |  | 0 | 0 | 0 | 20 | 0 | 20 | 
23 | Cc1ccc(C(=O)CCN(CCO)Cc2ccccc2)o1 [Example 139, 2-(N-benzylhydroxyethyl)aminoethyl-5-methyl-2-furylketone] |  | 0 | 0 | 0 | 20 | 20 | 30 | 
24 | Cc1csc(C(=O)CCN(Cc2ccccc2)C(C)C)n1 [Example 263, 2-(N-benzylisopropyl)aminoethyl-4-methyl-2-thiazolylketone] |  | 0 | 0 | 30 | 0 | 0 | 70 | 
25 | Cc1ccc(C(=O)CCN(Cc2ccccc2)C(C)(C)C)s1 [Example 316, 2-(N-benzyl-t-butyl)aminoethyl-5-methyl-2-thienylketone] |  | 0 | 10 | 20 | 70 | 80 | 100 | 
26 | CC(C)N(CCO)CCC(=O)c1cnccn1 [Example 151, 2-(N-isopropylhydroxyethyl)aminoethyl-2-pyrazylketone] |  | 0 | 0 | 0 | 20 | 20 | 50 | 
27 | CC(=O)CCN(Cc1ccccc1)C(C)C [Example 198, 2-(N-benzylisopropyl)aminoethylmethylketone] |  | 0 | 0 | 0 | 0 | 0 | 0 | 
28 | O=C(CCN(CCO)CCO)c1ccco1 [Example 130, 2-(N-bis-hydroxyethyl)aminoethyl-2-furylketone] |  | 0 | 0 | 0 |  |  |  | IICR level (percentage of inhibition) ([1]; test compound 10 μmol): 20%; IICR level (percentage of inhibition) ([1]; test compound 30 μmol): 20%; IICR level (percentage of inhibition) ([1]; test compound 100 μmol): 50%
29 | CC(C)N(CCO)CCC(=O)c1ccccn1 [Example 154, 2-(N-hydroxyethylisopropyl)aminoethyl-2-pyridylketone] |  | 0 | 0 | 0 | 40 | 20 | 80 | 
30 | COC(=O)C(CCC(=O)c1ccc2ccccc2c1)C(C)=O (stereo not shown) [Example 97, 3-acetyl-3-methoxycarbonylpropyl-2-naphthylketone] |  | 0 | 10 | 90 | 0 | 10 | 70 | 
31 | O=C(CCN(CCO)Cc1ccccc1)c1ccsc1 [Example 184, 2-(N-2-hydroxyethylbenzyl)aminoethyl-3-thiophenylketone] |  | 0 | 0 | 0 | 30 | 50 | 60 | 

Source: US8937091B2 (Japan Science and Technology Agency, priority 2009, dated 2015)
